Assay results reported in PMC2014795 (PLoS Pathogens, 2007).

What follows are compounds tested against T1, HLA-DR1 (DRB1*0101) (Homo sapiens, UniProt P01903+P01911, A100R/D57E/F55L/F60I/F76Y/I96L/L162R/M171V/P40L/Q125E/R42F/V115G/Y59C) (assay: biochemical).
T1 construct: the extracellular portion of HLA-DR1 was produced by expression of isolated subunits in Escherichia coli inclusion bodies; made in house
Assay type: binding

Point of comparison: `CC[C@H](C)[C@H](NC(=O)[C@H](CCCNC(=N)N)NC(=O)[C@H](CC(=O)O)NC(=O)[C@@H](NC(=O)[C@H](CCCCN)NC(=O)[C@@H](NC(=O)[C@H](CO)NC(=O)[C@H](CCC(=O)O)NC(=O)[C@@H](NC(=O)[C@H](Cc1ccc(O)cc1)NC(=O)[C@H](CCSC)NC(=O)[C@H](Cc1ccccc1)NC(=O)[C@H](CO)NC(=O)[C@H](Cc1ccccc1)NC(=O)[C@H](CCCCN)NC(=O)[C@H](Cc1ccccc1)NC(=O)[C@H](Cc1ccccc1)NC(=O)[C@@H](N)CC(=O)O)[C@@H](C)CC)[C@@H](C)CC)C(C)C)C(=O)NCC(=O)N[C@@H](CC(=O)O)C(=O)N[C@@H](CC(N)=O)C(=O)O` [Peptide 328], IC50 140 ± 20 nM. Against it:
- CC[C@H](C)[C@H](N)C(=O)N[C@H](C(=O)N[C@H](C(=O)N[C@@H](Cc1c[nH]c2ccccc12)C(=O)N1CCC[C@H]1C(=O)N[C@@H](CCCCN)C(=O)N[C@@H](Cc1ccccc1)C(=O)N[C@@H](CCCNC(=N)N)C(=O)N[C@H](C(=O)N[C@H](C(=O)N[C@@H](CCCCN)C(=O)N1CCC[C@H]1C(=O)N[C@@H](CC(N)=O)C(=O)N[C@@H](CO)C(=O)N[C@@H](Cc1ccccc1)C(=O)N[C@H](C(=O)N[C@@H](Cc1ccccc1)C(=O)N[C@@H](CO)C(=O)N[C@@H](Cc1ccccc1)C(=O)N[C@@H](CO)C(=O)N[C@@H](CO)C(=O)O)[C@@H](C)O)C(C)C)C(C)C)[C@@H](C)O)[C@@H](C)O [Peptide 344] — 4.2-fold lower, 33 ± 5 nM
- CC[C@H](C)[C@H](N)C(=O)N[C@@H](CC(=O)O)C(=O)N[C@@H](CC(N)=O)C(=O)N[C@@H](CCC(=O)O)C(=O)N[C@@H](CO)C(=O)NCC(=O)N[C@@H](Cc1c[nH]c2ccccc12)C(=O)N[C@@H](CCCCN)C(=O)N[C@H](C(=O)N[C@@H](CC(C)C)C(=O)N[C@H](C(=O)N[C@@H](CO)C(=O)N[C@@H](CCCNC(=N)N)C(=O)N[C@@H](C)C(=O)N[C@H](C(=O)N[C@@H](CC(=O)O)C(=O)N[C@@H](CC(C)C)C(=O)N[C@@H](CO)C(=O)N[C@@H](CO)C(=O)N[C@@H](CCCCN)C(=O)N[C@@H](CCCCN)C(=O)O)[C@@H](C)CC)C(C)C)[C@@H](C)O [Peptide 342] — within error, 130 ± 10 nM
- CC(C)C[C@H](NC(=O)[C@H](Cc1ccc(O)cc1)NC(=O)[C@H](CCCNC(=N)N)NC(=O)CNC(=O)[C@H](CCC(=O)O)NC(=O)[C@H](CCCCN)NC(=O)[C@@H](NC(=O)[C@@H](N)CC(N)=O)[C@@H](C)O)C(=O)N[C@H](C(=O)N[C@@H](CC(C)C)C(=O)N[C@@H](CCCCN)C(=O)N[C@@H](C)C(=O)N[C@H](C(=O)N[C@@H](CCCCN)C(=O)N[C@H](C(=O)N[C@@H](CS)C(=O)N[C@@H](CC(=O)O)C(=O)N[C@H](C(=O)N[C@@H](CCCNC(=N)N)C(=O)N[C@H](C(=O)N[C@H](C(=O)O)C(C)C)[C@@H](C)O)C(C)C)C(C)C)C(C)C)C(C)C [Peptide 301] — within 1.5-fold, 190 ± 16 nM
- CC[C@H](C)[C@H](NC(=O)[C@H](CCC(=O)O)NC(=O)[C@H](CC(=O)O)NC(=O)[C@@H](NC(=O)[C@H](CC(=O)O)NC(=O)[C@H](CC(C)C)NC(=O)[C@@H](NC(=O)[C@H](CCCCN)NC(=O)CNC(=O)[C@H](Cc1c[nH]cn1)NC(=O)[C@@H](NC(=O)[C@@H](NC(=O)[C@H](Cc1ccc(O)cc1)NC(=O)[C@H](CCSC)NC(=O)[C@H](CC(=O)O)NC(=O)[C@H](Cc1ccc(O)cc1)NC(=O)[C@@H]1CCCN1C(=O)[C@H](CC(C)C)NC(=O)[C@H](CCCNC(=N)N)NC(=O)[C@@H](N)CCCCN)[C@@H](C)CC)[C@@H](C)CC)C(C)C)[C@@H](C)CC)C(=O)N[C@@H](CC(C)C)C(=O)O [Peptide 339] — 1.5-fold higher, 210 ± 45 nM
- CC[C@H](C)[C@H](N)C(=O)N[C@@H](CC(=O)O)C(=O)N[C@@H](CC(N)=O)C(=O)NCC(=O)N[C@@H](CO)C(=O)N[C@@H](CC(N)=O)C(=O)N[C@@H](CCSC)C(=O)N[C@@H](CC(C)C)C(=O)N[C@H](C(=O)N[C@@H](CC(C)C)C(=O)N[C@@H](CC(N)=O)C(=O)N1CCC[C@H]1C(=O)N[C@H](C(=O)N[C@@H](CCC(N)=O)C(=O)N[C@@H](CO)C(=O)N[C@@H](CC(=O)O)C(=O)N[C@@H](CO)C(=O)NCC(=O)N[C@H](C(=O)N[C@@H](Cc1ccc(O)cc1)C(=O)N[C@H](C(=O)O)[C@@H](C)CC)[C@@H](C)CC)[C@@H](C)O)[C@@H](C)CC [Peptide 338] — 7-fold higher, 980 ± 170 nM
- CC[C@H](C)[C@H](NC(=O)[C@H](Cc1ccccc1)NC(=O)[C@H](CC(C)C)NC(=O)[C@H](CC(C)C)NC(=O)[C@H](CS)NC(=O)[C@@H](NC(=O)[C@H](C)NC(=O)[C@H](C)NC(=O)[C@@H](NC(=O)[C@H](C)N)[C@@H](C)O)C(C)C)C(=O)N[C@@H](CCC(N)=O)C(=O)NCC(=O)N[C@@H](Cc1ccc(O)cc1)C(=O)N[C@@H](CO)C(=O)N[C@H](C(=O)N[C@@H](Cc1ccc(O)cc1)C(=O)N[C@@H](CCC(=O)O)C(=O)N[C@@H](CC(N)=O)C(=O)N[C@@H](Cc1ccc(O)cc1)C(=O)NCC(=O)N[C@@H](CC(N)=O)C(=O)O)[C@@H](C)CC [Peptide 336] — 2-fold higher, 280 ± 40 nM
- CC[C@H](C)[C@H](NC(=O)[C@H](CCSC)NC(=O)[C@@H](N)Cc1ccc(O)cc1)C(=O)N[C@H](C(=O)N[C@H](C(=O)NCC(=O)N[C@H](C(=O)N[C@H](C(=O)N[C@H](C(=O)N[C@@H](CC(C)C)C(=O)N[C@@H](C)C(=O)N[C@@H](C)C(=O)N[C@@H](CC(C)C)C(=O)N[C@@H](Cc1ccccc1)C(=O)N[C@@H](CCSC)C(=O)N[C@@H](Cc1ccc(O)cc1)C(=O)N[C@@H](Cc1ccc(O)cc1)C(=O)N[C@@H](C)C(=O)N[C@@H](CCCCN)C(=O)N[C@@H](CCCNC(=N)N)C(=O)N[C@@H](CCSC)C(=O)O)[C@@H](C)CC)[C@@H](C)CC)C(C)C)[C@@H](C)CC)C(C)C [Peptide 317] — 4.8-fold higher, 675 ± 185 nM
- CC[C@H](C)[C@H](NC(=O)[C@H](Cc1ccccc1)NC(=O)[C@H](CCC(=O)O)NC(=O)[C@H](CC(N)=O)NC(=O)[C@@H](N)[C@@H](C)O)C(=O)N[C@@H](CO)C(=O)N[C@@H](Cc1ccccc1)C(=O)N[C@@H](CC(C)C)C(=O)N[C@@H](CC(C)C)C(=O)N[C@@H](CC(C)C)C(=O)N[C@H](C(=O)N[C@@H](CO)C(=O)N[C@H](C(=O)N1CCC[C@H]1C(=O)N[C@H](C(=O)N[C@@H](Cc1ccc(O)cc1)C(=O)N[C@@H](CC(N)=O)C(=O)N[C@H](C(=O)N[C@@H](CC(C)C)C(=O)N[C@@H](Cc1ccccc1)C(=O)N[C@@H](Cc1c[nH]c2ccccc12)C(=O)O)[C@@H](C)CC)[C@@H](C)CC)[C@@H](C)CC)[C@@H](C)O [Peptide 313] — 3.6-fold higher, 510 ± 110 nM
- CC[C@H](C)[C@H](NC(=O)[C@H](CO)NC(=O)[C@H](CC(N)=O)NC(=O)[C@H](Cc1ccccc1)NC(=O)[C@@H](NC(=O)[C@H](CC(C)C)NC(=O)[C@H](CCC(N)=O)NC(=O)[C@H](CC(=O)O)NC(=O)[C@H](CCC(=O)O)NC(=O)[C@@H](N)Cc1ccccc1)C(C)C)C(=O)N[C@@H](CO)C(=O)N[C@@H](C)C(=O)N[C@@H](CCCNC(=N)N)C(=O)N[C@@H](C)C(=O)N[C@@H](CC(C)C)C(=O)N[C@@H](CCCCN)C(=O)N[C@@H](C)C(=O)N[C@@H](Cc1ccc(O)cc1)C(=O)N[C@@H](Cc1ccccc1)C(=O)N[C@H](C(=O)N[C@@H](C)C(=O)O)[C@@H](C)O [Peptide 345] — 18-fold lower, 8 ± 0.3 nM
- CC[C@H](C)[C@H](N)C(=O)N1CCC[C@H]1C(=O)N[C@@H](CC(C)C)C(=O)N[C@@H](CO)C(=O)N[C@@H](CCC(=O)O)C(=O)N[C@@H](CCSC)C(=O)N[C@H](C(=O)N[C@H](C(=O)N[C@@H](CCCCN)C(=O)N[C@@H](CC(C)C)C(=O)N[C@H](C(=O)N[C@@H](C)C(=O)N[C@H](C(=O)N[C@@H](CS)C(=O)N[C@@H](CCSC)C(=O)N[C@@H](CCCCN)C(=O)N[C@@H](CS)C(=O)N[C@@H](Cc1ccccc1)C(=O)N[C@@H](CCCCN)C(=O)N[C@@H](CCC(=O)O)C(=O)N[C@@H](C)C(=O)O)C(C)C)[C@@H](C)O)C(C)C)C(C)C [Peptide 305] — 4.8-fold lower, 29 ± 10 nM
- CC[C@H](C)[C@H](NC(=O)[C@@H](NC(=O)[C@H](CC(C)C)NC(=O)[C@H](C)NC(=O)[C@@H](NC(=O)[C@H](CC(C)C)NC(=O)[C@H](C)NC(=O)[C@H](CC(C)C)NC(=O)[C@H](CC(C)C)NC(=O)[C@H](CCSC)NC(=O)[C@H](CCC(N)=O)NC(=O)[C@H](Cc1ccc(O)cc1)NC(=O)[C@H](CC(N)=O)NC(=O)[C@H](CCCNC(=N)N)NC(=O)[C@H](CO)NC(=O)[C@@H](NC(=O)[C@H](CC(C)C)NC(=O)[C@@H](N)CCCNC(=N)N)C(C)C)C(C)C)C(C)C)C(=O)N[C@H](C(=O)N[C@@H](CC(C)C)C(=O)N[C@H](C(=O)O)[C@@H](C)O)[C@@H](C)O [Peptide 310] — 4.7-fold higher, 660 ± 25 nM
- CC[C@H](C)[C@H](NC(=O)[C@H](C)NC(=O)[C@H](CCCNC(=N)N)NC(=O)CNC(=O)[C@@H](NC(=O)[C@@H](NC(=O)[C@H](CCC(N)=O)NC(=O)[C@H](CCCNC(=N)N)NC(=O)[C@H](CC(C)C)NC(=O)[C@H](CO)NC(=O)[C@H](C)NC(=O)[C@H](CCC(=O)O)NC(=O)[C@H](CC(N)=O)NC(=O)[C@H](Cc1c[nH]c2ccccc12)NC(=O)[C@@H](N)[C@@H](C)O)[C@@H](C)CC)C(C)C)C(=O)N[C@@H](CCCNC(=N)N)C(=O)N[C@@H](CC(C)C)C(=O)N[C@@H](CC(N)=O)C(=O)N[C@@H](CO)C(=O)N[C@@H](Cc1c[nH]cn1)C(=O)N[C@H](C(=O)O)C(C)C [Peptide 343] — 1.5-fold higher, 210 ± 20 nM
- CC[C@H](C)[C@H](NC(=O)[C@H](C)NC(=O)[C@H](CC(C)C)NC(=O)[C@H](CO)NC(=O)[C@H](CC(N)=O)NC(=O)[C@H](CC(C)C)NC(=O)[C@H](Cc1ccccc1)NC(=O)[C@H](CCCNC(=N)N)NC(=O)[C@H](CCSC)NC(=O)[C@H](CC(=O)O)NC(=O)[C@H](Cc1ccccc1)NC(=O)[C@H](CCC(N)=O)NC(=O)CNC(=O)[C@@H](NC(=O)[C@@H](N)Cc1ccc(O)cc1)[C@@H](C)CC)C(=O)N[C@@H](Cc1c[nH]cn1)C(=O)N[C@@H](CCC(=O)O)C(=O)N[C@@H](CCCCN)C(=O)N[C@@H](Cc1ccccc1)C(=O)N[C@@H](CC(=O)O)C(=O)N[C@@H](C)C(=O)O [Peptide 314] — 35-fold lower, 4 ± 1 nM
